Source: the NIST ThermoML archive (doi:10.1016/j.jct.2016.09.007)

Test: xn = mol fraction of the nth substance listed
Conditions: 93.2 kPa, Liquid; for speed of sound: Frequency=3 MHz, Sing-around technique in a fixed-path interferometer; for mass density: Vibrating tube method

CCCC(=O)[O-].CCCC[NH3+] [n-butylammonium butanoate] + CO
Conditions | mass density, 293.15 K [kg/m3] | mass density, 298.15 K [kg/m3] | mass density, 303.15 K [kg/m3] | mass density, 308.15 K [kg/m3] | mass density, 313.15 K [kg/m3] | speed of sound, 293.15 K [m/s] | speed of sound, 298.15 K [m/s] | speed of sound, 303.15 K [m/s] | speed of sound, 308.15 K [m/s] | speed of sound, 313.15 K [m/s]
x1 = 0.0503 | 827.536 | 823.196 | 818.837 | 814.456 | 810.048 | 1187.9 | 1171.5 | 1155.3 | 1139.3 | 1123.3
x1 = 0.0999 | 850.303 | 846.198 | 842.076 | 837.934 | 833.767 | 1233.9 | 1217.6 | 1201.5 | 1185.5 | 1169.7
x1 = 0.1491 | 866.376 | 862.414 | 858.459 | 854.49 | 850.482 | 1268.2 | 1251.9 | 1235.9 | 1219.9 | 1204.1
x1 = 0.2011 | 878.773 | 874.958 | 871.116 | 867.265 | 863.431 | 1295.6 | 1279.4 | 1263.3 | 1247.4 | 1231.6
x1 = 0.2525 | 888.142 | 884.423 | 880.696 | 876.953 | 873.199 | 1316.7 | 1300.5 | 1284.4 | 1268.5 | 1252.7
x1 = 0.3057 | 895.564 | 891.923 | 888.274 | 884.609 | 880.93 | 1333.9 | 1317.8 | 1301.7 | 1285.8 | 1270
x1 = 0.3476 | 900.631 | 896.968 | 893.253 | 889.68 | 886.019 | 1345.6 | 1329.3 | 1313.2 | 1297.2 | 1281.4
x1 = 0.3966 | 905.316 | 901.759 | 898.192 | 894.632 | 891.1 | 1356.4 | 1340.1 | 1324 | 1308 | 1292.1
x1 = 0.4491 | 909.413 | 905.905 | 902.401 | 898.901 | 895.415 | 1366.1 | 1349.7 | 1333.5 | 1317.5 | 1301.7
x1 = 0.501 | 912.93 | 909.441 | 905.946 | 902.476 | 899.051 | 1374.4 | 1358 | 1341.8 | 1325.7 | 1310
x1 = 0.541 | 915.316 | 911.864 | 908.414 | 904.968 | 901.531 | 1380.2 | 1363.7 | 1347.4 | 1331.3 | 1315.4
x1 = 0.5913 | 917.715 | 914.276 | 910.846 | 907.442 | 904.079 | 1386 | 1369.4 | 1353.1 | 1336.9 | 1321
x1 = 0.6445 | 920.109 | 916.724 | 913.329 | 909.923 | 906.495 | 1391.7 | 1374.9 | 1358.5 | 1342.3 | 1326.3
x1 = 0.6895 | 921.905 | 918.523 | 915.128 | 911.737 | 908.371 | 1396.6 | 1379.8 | 1363.2 | 1346.9 | 1330.8
x1 = 0.7391 | 923.626 | 920.287 | 916.93 | 913.559 | 910.183 | 1401.3 | 1384.2 | 1367.4 | 1350.9 | 1334.8
x1 = 0.8007 | 925.47 | 922.166 | 918.855 | 915.534 | 912.194 | 1407.1 | 1389.5 | 1372.5 | 1355.8 | 1339.5
x1 = 0.8243 | 926.211 | 922.909 | 919.611 | 916.299 | 912.971 | 1409.6 | 1391.8 | 1374.6 | 1357.8 | 1341.4
x1 = 0.8973 | 927.898 | 924.584 | 921.292 | 918.007 | 914.707 | 1416.7 | 1398 | 1380.2 | 1362.9 | 1346.2
x1 = 0.932 | 928.804 | 925.491 | 922.195 | 918.913 | 915.625 | 1420.3 | 1401.2 | 1383 | 1365.5 | 1348.5
x1 = 1 | 928.794 | 925.509 | 922.217 | 918.88 | 915.567 | 1431.5 | 1410.3 | 1390.4 | 1371.5 | 1353.6
